Source: patent US20130259884A1, “PEPTIDES” ([…] SL, priority 2010, published 2013)
Where a SMILES comes first, the peptide text is derived from it.

Experiment: Water solubility of peptides when preparing stock solutions
Assay type: physicochemical
Details: stock solution in sterile distilled water or 100% DMSO; read-out: solubility of peptide (water soluble or water insoluble, dissolved in DMSO)
Protocol: For challenge, peptides were administered as follows: • Individual peptides (soluble). Individual water soluble peptides were dissolved as 10, 5 or 2.5 mg/ml stock solutions in sterile distilled water. Before use, each peptide was diluted in water to 2 mg/ml and 10 μl of this 2 mg/ml mix was added to 990 μl of media. Then 100 μl of this peptide/media mix was added to 100 μl of media containing 350,000 PBMC in an ELISPOT anti-IL-4 coated cell culture plate well for a final peptide concentration of 10 μg/ml. Identically diluted media only was added to the cells and used for the no peptide media control wells (media only). • Individual peptides (DMSO). Individual water insoluble peptides were dissolved in 100% DMSO to a stock concentration of 50 mg/ml. Before use each peptide was diluted in water to 2 mg/ml and then 10 μl of the 2 mg/ml mix was added to 990 μl of cell-culture media. Then 100 μl of this peptide/media mix was added to 100 μl of media containing 350,000 PBMC in an ELISPOT anti-IL-4 coated cell culture plate well for a final peptide concentration of 10 μg/ml. Identically diluted media only was added to the cells and used for the no peptide media control wells (media only). • A combination preparation containing Alt a 1 soluble peptides (33.2, 34.3, 35.4, 35.5, 37.3.1, 37.4.1, L6-5.01, L10-1.01, L10-2.01, L10-3), called Alt a 1 Sol. Each peptide was diluted from water stock to 2 mg/ml in sterile distilled water. Then 10 μl of each peptide required for the combined preparation was mixed and brought up to 1 ml in media. Then 100 μl of this peptide/media mix was added to 100 μl of media containing 350,000 PBMC in an ELISPOT anti-IL-4 coated cell culture plate well for a final concentration of each peptide of 10 μg/ml. Identically diluted media only was used for the no peptide control wells (media only). • A combination preparation containing Alt a 1 DMSO peptides (32.2.1, 38.2.1, 35.2, 35.3, L6-2, L6-3, L6-4, 38.3, 37.2), called Alt a 1 DMSO. Each peptide was diluted from DMSO stock to 2 mg/ml in sterile distilled water. Then 10 μl of each peptide required for the combined preparation was mixed and brought up to 1 ml in media. Then 100 μl of this peptide/media mix is added to 100 μl of media containing 350,000 PBMC in an ELISPOT anti-IL-4 coated cell culture plate well for a final concentration of each peptide of 10 μg/ml. Identically diluted media only was used for the no peptide control wells (media only). • A combination preparation containing non-Alt a 1 soluble peptides (40.2, 41.2, 43.2, 44.2, 46.2, 47.2.1, 56.2, 57.2.1, 60.2, 62.2.1, 67.2, 71.3), called Alt a Other Sol. Each peptide was diluted from water stock to 2 mg/ml in sterile distilled water. Then 10 μl of each peptide required for the combined preparation was mixed and brought up to 1 ml in media, Then 100 μl of this peptide/media mix was added to 100 μl of media containing 350,000 PBMC in an ELISPOT anti-IL-4 coated cell culture plate well for a final concentration of each peptide at 10 μg/ml. Identically diluted media only was used for the no peptide control wells (media only). • A combination preparation containing non-Alt a 1 DMSO peptides (39.2, 42.2, 45.2, 48.2.1, 50.2, 51.2.1, 61.2.1, 66.3.1, 68.2.1, 70.2, 71.2, 72.2), called Alt a Other DMSO. Each peptide was diluted from DMSO stock to 2 mg/ml in sterile distilled water. Then 10 ul of each peptide required for the combined preparation was mixed and brought up to 1 ml in media, Then 100 μl of this peptide/media mix was added to 100 μl of media containing 350,000 PBMC in an ELISPOT anti-IL-4 coated cell culture plate well for a final concentration of each peptide at 10 μg/ml. Identically diluted media only was used for the no peptide control wells (media only).

SMILES | solubility [µg/mL]
CC(C)C[C@H](NC(=O)[C@H](C)NC(=O)[C@H](CCCNC(=N)N)NC(=O)[C@H](C)N)C(=O)N[C@@H](CCCNC(=N)N)C(=O)N[C@@H](CCCNC(=N)N)C(=O)N[C@@H](CC(C)C)C(=O)N[C@@H](CCCNC(=N)N)C(=O)N[C@H](C(=O)N[C@@H](C)C(=O)N[C@@H](CS)C(=O)N[C@@H](CCC(=O)O)C(=O)N[C@@H](CCCNC(=N)N)C(=O)N[C@@H](C)C(=O)N[C@@H](CCCCN)C(=O)O)[C@@H](C)O [Peptide 41.2, ARALRRLRTACERAK] (H-ARALRRLRTACERAK-OH; N-terminus and C-terminus assumed) | > 2500
CC[C@H](C)[C@H](NC(=O)[C@H](CCC(=O)O)NC(=O)[C@H](CC(=O)O)NC(=O)[C@@H]1CCCN1)C(=O)N[C@@H](CCC(N)=O)C(=O)NCC(=O)N[C@@H](Cc1ccccc1)C(=O)N1CCC[C@H]1C(=O)N[C@H](C(=O)N[C@H](C(=O)N[C@@H](CCCCN)C(=O)N[C@@H](CC(C)C)C(=O)N[C@@H](Cc1ccccc1)C(=O)N1CCC[C@H]1C(=O)N[C@@H](C)C(=O)O)[C@@H](C)CC)[C@@H](C)O [Peptide 43.2, PDEIQGFPTIKLFPA] (H-PDEIQGFPTIKLFPA-OH) | > 2500
CC[C@H](C)[C@H](NC(=O)[C@H](CCC(N)=O)NC(=O)CNC(=O)[C@H](CO)NC(=O)[C@H](CCCNC(=N)N)NC(=O)[C@H](CC(C)C)NC(=O)CNC(=O)[C@@H](NC(=O)[C@@H](NC(=O)[C@@H](NC(=O)[C@H](CC(=O)O)NC(=O)[C@H](C)N)[C@@H](C)CC)C(C)C)C(C)C)C(=O)N[C@@H](CCCCN)C(=O)N[C@H](C(=O)NCC(=O)O)[C@@H](C)O [Peptide 44.2, ADIVVGLRSGQIKTG] (H-ADIVVGLRSGQIKTG-OH) | > 2500
CC(C)C[C@H](NC(=O)[C@@H](NC(=O)CNC(=O)[C@@H](NC(=O)[C@H](CO)NC(=O)[C@@H](NC(=O)[C@H](Cc1ccccc1)NC(=O)[C@@H](NC(=O)CNC(=O)[C@H](C)N)C(C)C)C(C)C)[C@@H](C)O)[C@@H](C)O)C(=O)NCC(=O)NCC(=O)NCC(=O)N[C@@H](CCC(N)=O)C(=O)N[C@@H](CCC(=O)O)C(=O)O [Peptide 45.2, AGVFVSTGTLGGGQE] (H-AGVFVSTGTLGGGQE-OH) | < 2500
CC[C@H](C)[C@H](NC(=O)[C@@H](NC(=O)[C@@H](NC(=O)[C@H](CCCCN)NC(=O)CNC(=O)[C@@H](N)CCCCN)C(C)C)C(C)C)C(=O)N[C@H](C(=O)N[C@H](C(=O)NCC(=O)N[C@@H](C)C(=O)N[C@@H](CO)C(=O)NCC(=O)N1CCC[C@H]1C(=O)N[C@H](C(=O)NCC(=O)O)[C@@H](C)O)[C@@H](C)O)C(C)C [Peptide 46.2, KGKVVIVTGASGPTG] (H-KGKVVIVTGASGPTG-OH) | > 2500
CC[C@H](C)[C@H](NC(=O)[C@H](Cc1c[nH]cn1)NC(=O)CNC(=O)[C@H](CO)NC(=O)[C@H](CC(C)C)NC(=O)[C@H](CO)NC(=O)[C@H](CO)NC(=O)[C@@H](NC(=O)[C@@H](NC(=O)[C@@H](NC(=O)[C@H](CC(C)C)NC(=O)[C@H](CO)NC(=O)CNC(=O)[C@@H](N)[C@@H](C)O)C(C)C)[C@@H](C)CC)[C@@H](C)O)C(=O)N[C@@H](C)C(=O)O [Peptide 47.2.1, TGSLVITSSLSGHIA] (H-TGSLVITSSLSGHIA-OH) | > 2500
CC[C@H](C)[C@H](NC(=O)[C@H](C)NC(=O)[C@H](Cc1c[nH]c2ccccc12)NC(=O)[C@@H](N)C(C)C)C(=O)N[C@H](C(=O)N[C@@H](CC(C)C)C(=O)N[C@@H](CC(C)C)C(=O)N[C@@H](CO)C(=O)N[C@@H](CC(C)C)C(=O)N[C@H](C(=O)N[C@@H](CCC(N)=O)C(=O)N[C@@H](CC(C)C)C(=O)N[C@H](C(=O)N[C@H](C(=O)N1CCC[C@H]1C(=O)O)[C@@H](C)O)[C@@H](C)O)C(C)C)C(C)C [Peptide 48.2.1, VWAIVLLSLVQLTTP] (H-VWAIVLLSLVQLTTP-OH) | < 2500
CC[C@H](C)[C@H](NC(=O)CNC(=O)[C@@H](N)C(C)C)C(=O)N[C@@H](Cc1ccccc1)C(=O)N[C@@H](CCCNC(=N)N)C(=O)N[C@@H](CC(=O)O)C(=O)N[C@@H](CC(=O)O)C(=O)N[C@@H](CCCNC(=N)N)C(=O)N[C@H](C(=O)N[C@@H](CCC(=O)O)C(=O)N[C@H](C(=O)N[C@H](C(=O)N[C@@H](C)C(=O)N[C@@H](CC(N)=O)C(=O)N[C@@H](CC(=O)O)C(=O)O)[C@@H](C)CC)[C@@H](C)CC)[C@@H](C)CC [Peptide 50.2, VGIFRDDRIEIIAND] (H-VGIFRDDRIEIIAND-OH; N-terminus and C-terminus assumed) | < 2500
CC(C)C[C@H](NC(=O)[C@H](C)NC(=O)[C@@H](NC(=O)[C@H](CCC(N)=O)NC(=O)[C@H](CC(N)=O)NC(=O)[C@@H](N)CCCCN)C(C)C)C(=O)N[C@@H](CC(N)=O)C(=O)N1CCC[C@H]1C(=O)N[C@H](C(=O)N[C@@H](CC(N)=O)C(=O)N[C@H](C(=O)N[C@H](C(=O)N[C@@H](Cc1ccccc1)C(=O)N[C@@H](CC(=O)O)C(=O)N[C@@H](C)C(=O)O)C(C)C)[C@@H](C)O)C(C)C [Peptide 51.2.1, KNQVALNPVNTVFDA] (H-KNQVALNPVNTVFDA-OH) | < 2500
CC[C@H](C)[C@H](NC(=O)[C@@H](NC(=O)[C@@H](NC(=O)[C@H](CC(C)C)NC(=O)[C@H](CCCCN)NC(=O)[C@H](CO)NC(=O)[C@@H](N)CC(C)C)C(C)C)[C@@H](C)O)C(=O)N[C@@H](C)C(=O)N[C@@H](CCCCN)C(=O)N[C@H](C(=O)N[C@@H](CC(=O)O)C(=O)N[C@@H](C)C(=O)N[C@H](C(=O)N[C@@H](CC(C)C)C(=O)N[C@@H](CC(N)=O)C(=O)O)[C@@H](C)O)C(C)C [Peptide 56.2, LSKLVTIAKVDATLN] (H-LSKLVTIAKVDATLN-OH) | > 2500
CC(C)C[C@H](NC(=O)CNC(=O)[C@H](CC(C)C)NC(=O)[C@H](CC(C)C)NC(=O)[C@H](CC(C)C)NC(=O)[C@H](Cc1ccc(O)cc1)NC(=O)[C@H](C)NC(=O)[C@H](C)NC(=O)[C@H](CC(C)C)NC(=O)[C@H](Cc1c[nH]cn1)NC(=O)[C@H](CCCCN)NC(=O)[C@@H](N)CC(C)C)C(=O)NCC(=O)NCC(=O)N[C@@H](CC(N)=O)C(=O)O [Peptide 57.2.1, LKHLAAYLLLGLGGN] (H-LKHLAAYLLLGLGGN-OH) | > 2500
CC(C)C[C@H](NC(=O)[C@H](C)NC(=O)[C@H](CCCCN)NC(=O)[C@H](CC(C)C)NC(=O)[C@H](CCCCN)NC(=O)[C@H](CCC(N)=O)NC(=O)[C@H](Cc1ccc(O)cc1)NC(=O)[C@@H](NC(=O)[C@H](CCC(=O)O)NC(=O)[C@H](C)N)C(C)C)C(=O)N[C@@H](C)C(=O)N[C@@H](CCCCN)C(=O)N[C@@H](CCCCN)C(=O)N[C@H](C(=O)N[C@@H](Cc1ccc(O)cc1)C(=O)O)[C@@H](C)O [Peptide 60.2, AEVYQKLKALAKKTY] (H-AEVYQKLKALAKKTY-OH) | > 2500
CC[C@H](C)[C@H](NC(=O)[C@H](C)N)C(=O)N[C@@H](CCC(=O)O)C(=O)N[C@@H](CC(C)C)C(=O)N[C@@H](CCCCN)C(=O)N[C@@H](CO)C(=O)N[C@H](C(=O)N[C@@H](CC(N)=O)C(=O)N[C@@H](C)C(=O)N[C@@H](CC(C)C)C(=O)N[C@@H](CC(C)C)C(=O)N[C@@H](CC(C)C)C(=O)N[C@@H](CCCCN)C(=O)N[C@H](C(=O)N[C@@H](CC(N)=O)C(=O)O)C(C)C)C(C)C [Peptide 61.2.1, AIELKSVNALLLKVN] (H-AIELKSVNALLLKVN-OH) | < 2500
